Molecular target: T1, KV1.3 (Homo sapiens, UniProt P22001)
T1 construct: gene KCNA3; human KV1.3 channel (KV1.3-pEYFP) transiently transfected in HEK-293 cells
Test: whole-cell patch clamp of KV1.3-transfected HEK-293 cells
Assay type: cell-based
Conditions: HEK293

T1 sequence (P22001 whole entry): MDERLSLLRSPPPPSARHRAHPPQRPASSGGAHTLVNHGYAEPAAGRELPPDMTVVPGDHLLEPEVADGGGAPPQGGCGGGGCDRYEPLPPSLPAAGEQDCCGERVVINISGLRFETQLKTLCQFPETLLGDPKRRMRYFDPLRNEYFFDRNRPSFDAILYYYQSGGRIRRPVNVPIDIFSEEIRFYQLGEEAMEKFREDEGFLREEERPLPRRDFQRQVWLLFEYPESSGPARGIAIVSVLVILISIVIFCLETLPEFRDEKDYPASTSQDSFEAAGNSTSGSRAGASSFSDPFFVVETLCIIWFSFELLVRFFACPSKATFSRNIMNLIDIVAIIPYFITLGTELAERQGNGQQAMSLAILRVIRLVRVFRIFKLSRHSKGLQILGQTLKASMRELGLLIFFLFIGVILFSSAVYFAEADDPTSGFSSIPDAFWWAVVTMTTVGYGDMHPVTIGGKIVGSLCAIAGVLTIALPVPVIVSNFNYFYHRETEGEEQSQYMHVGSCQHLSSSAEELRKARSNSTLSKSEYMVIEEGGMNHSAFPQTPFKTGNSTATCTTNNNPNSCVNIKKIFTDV

O=c1ccc2c(OCCCCOc3ccccc3)c3ccoc3cc2o1 [PAP-1, 5-(4-phenoxybutoxy)psoralen] showed an inhibition at 0.2 µM of 89.5 ± 2.8%.

— publication PMC5374215, “Fludarabine Inhibits KV1.3 Currents in Human B Lymphocytes” (Frontiers in Pharmacology, 2017)
